Laboratory results as given in patent US9000159B2 (Glenmark Pharmaceuticals, S.A., priority 2009, dated 2015).

Molecular target: T1, Human TRPA1 (Homo sapiens, UniProt O75762)
T1 construct: expressed in transfected cells; host or cells: CHO cells
Assay: 45Calcium uptake assay: inhibition of AITC induced cellular uptake of radioactive calcium
Type: cell-based
Conditions: AITC (30 μM) induced 45Ca uptake, Human TRPA1 expressing CHO cells; for inhibition at 1 µM: 1.0 μM test compound, read-out: Percentage inhibition at 1.0 μM; for inhibition at 10 µM: 10.0 μM test compound, read-out: Percentage inhibition at 10.0 μM; for IC50: read-out: Human IC50 value (range)
Summary of the method: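 CHO cells stably expressing human TRPA1 (~50,000/well) preincubated 10 min with compound (0.5% DMSO, medium with 0.1% BSA, 1.8 mM CaCl2), then 30 μM AITC plus 5 μCi/ml 45Ca2+ for 3 min. Lysate radioactivity counted by scintillation; IC50 by nonlinear regression of % maximal uptake.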

T1 sequence (O75762 whole entry): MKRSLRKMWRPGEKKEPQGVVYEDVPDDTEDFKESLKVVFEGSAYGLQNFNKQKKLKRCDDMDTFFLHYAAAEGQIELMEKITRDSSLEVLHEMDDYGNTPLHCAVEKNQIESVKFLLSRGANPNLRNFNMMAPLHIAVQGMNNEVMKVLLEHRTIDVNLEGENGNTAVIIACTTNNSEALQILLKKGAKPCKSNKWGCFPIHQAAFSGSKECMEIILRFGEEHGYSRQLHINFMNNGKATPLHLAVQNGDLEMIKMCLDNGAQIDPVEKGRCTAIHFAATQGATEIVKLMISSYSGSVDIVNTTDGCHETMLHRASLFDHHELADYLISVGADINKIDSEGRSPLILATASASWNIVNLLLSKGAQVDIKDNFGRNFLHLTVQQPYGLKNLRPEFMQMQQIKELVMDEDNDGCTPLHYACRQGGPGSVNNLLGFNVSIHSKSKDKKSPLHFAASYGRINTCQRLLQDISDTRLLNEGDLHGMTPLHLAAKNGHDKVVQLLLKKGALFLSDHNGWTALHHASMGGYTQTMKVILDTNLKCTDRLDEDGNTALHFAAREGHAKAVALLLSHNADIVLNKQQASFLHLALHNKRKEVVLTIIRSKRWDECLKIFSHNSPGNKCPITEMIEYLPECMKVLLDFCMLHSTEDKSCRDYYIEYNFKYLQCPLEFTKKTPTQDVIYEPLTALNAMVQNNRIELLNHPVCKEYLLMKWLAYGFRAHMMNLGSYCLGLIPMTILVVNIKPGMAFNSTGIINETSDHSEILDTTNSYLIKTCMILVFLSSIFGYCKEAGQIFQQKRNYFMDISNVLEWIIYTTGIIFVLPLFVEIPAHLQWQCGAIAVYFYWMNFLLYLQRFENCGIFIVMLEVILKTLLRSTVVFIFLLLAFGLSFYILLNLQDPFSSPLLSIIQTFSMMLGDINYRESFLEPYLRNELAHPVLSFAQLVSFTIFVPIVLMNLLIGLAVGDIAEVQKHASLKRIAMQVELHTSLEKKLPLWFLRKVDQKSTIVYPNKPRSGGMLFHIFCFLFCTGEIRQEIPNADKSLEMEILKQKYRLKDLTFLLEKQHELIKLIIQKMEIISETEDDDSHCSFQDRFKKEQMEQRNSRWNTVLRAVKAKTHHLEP

Row | SMILES | inhibition at 1 µM [%] | inhibition at 10 µM [%] | IC50 [nM]
1 | Cn1nc2c(c1CC(=O)Nc1nc(-c3cccc(C(F)(F)F)c3F)cs1)c(=O)n(C)c(=O)n2C [Example 55, N-{4-[2-Fluoro-3-(trifluoromethyl)phenyl]-1,3-thiazol-2-yl}-2-(2,5,7-trimethyl-4,6-dioxo-4,5,6,7-tetrahydro-2H-pyrazolo[3,4-d]pyrimidin-3-yl)acetamide] | 92.2 | 99.2 | 50 to 100
2 | Cn1nc2c(c1CC(=O)Nc1nc(-c3ccc(F)c(OC(F)(F)F)c3)cs1)c(=O)n(C)c(=O)n2C [Example 60, N-{4-[4-Fluoro-3-(trifluoromethoxy)phenyl]-1,3-thiazol-2-yl}-2-(2,5,7-trimethyl-4,6-dioxo-4,5,6,7-tetrahydro-2H-pyrazolo[3,4-d]pyrimidin-3-yl)acetamide] | 93.4 | 97.2 | < 50
3 | Cn1nc2c(c1CC(=O)Nc1nc(-c3ccc(OC(F)F)c(F)c3)cs1)c(=O)n(C)c(=O)n2C [Example 61, N-{4-[4-(Difluoromethoxy)-3-fluorophenyl]-1,3-thiazol-2-yl}-2-(2,5,7-trimethyl-4,6-dioxo-4,5,6,7-tetrahydro-2H-pyrazolo[3,4-d]pyrimidin-3-yl)acetamide] | 86 | 98.3 | 50 to 100
4 | Cn1nc2c(c1CC(=O)Nc1nc(-c3ccc(C(F)(F)F)c(F)c3F)cs1)c(=O)n(C)c(=O)n2C [Example 62, N-{4-[2,3-difluoro-4-(trifluoromethyl)phenyl]-1,3-thiazol-2-yl}-2-(2,5,7-trimethyl-4,6-dioxo-4,5,6,7-tetrahydro-2H-pyrazolo[3,4-d]pyrimidin-3-yl)acetamide] | 90.3 | 95.8 | < 50
5 | Cn1nc2c(c1CC(=O)Nc1nc(-c3ccc(F)c(C(F)(F)F)c3F)cs1)c(=O)n(C)c(=O)n2C [Example 63, N-{4-[2,4-Difluoro-3-(trifluoromethyl)phenyl]-1,3-thiazol-2-yl}-2-(2,5,7-trimethyl-4,6-dioxo-4,5,6,7-tetrahydro-2H-pyrazolo[3,4-d]pyrimidin-3-yl)acetamide] | 95.1 | 99.7 | < 50
6 | Cn1nc2c(c1CC(=O)Nc1cc(-c3ccc(Br)cc3)on1)c(=O)n(C)c(=O)n2C [Example 65, N-[5-(4-Bromophenyl)isoxazol-3-yl]-2-(2,5,7-trimethyl-4,6-dioxo-4,5,6,7-tetrahydro-2H-pyrazolo[3,4-d]pyrimidin-3-yl)acetamide] | 12.5 | 24.6 | 
7 | Cn1nc2c(c1CC(=O)Nc1nc3cc(OC(F)(F)F)ccc3s1)c(=O)n(C)c(=O)n2C [Example 66, N-[5-(Trifluoromethoxy)-1,3-benzothiazol-2-yl]-2-(2,5,7-trimethyl-4,6-dioxo-4,5,6,7-tetrahydro-2H-pyrazolo[3,4-d]pyrimidin-3-yl)acetamide] | 45 | 71.5 | 
8 | CC(C)COc1c(F)cc(-c2csc(NC(=O)Cn3ncc4c3c(=O)n(C)c(=O)n4C)n2)cc1F [Example 74, N-[4-(3,5-Difluoro-4-isobutoxyphenyl)-1,3-thiazol-2-yl]-2-(4,6-dimethyl-5,7-dioxo-4,5,6,7-tetrahydro-1H-pyrazolo[4,3-d]pyrimidin-1-yl)acetamide] | 92.1 | 98.8 | < 50
9 | CC(C)COc1c(Cl)cc(-c2csc(NC(=O)Cn3ncc4c3c(=O)n(C)c(=O)n4C)n2)cc1Cl [Example 75, N-[4-(3,5-Dichloro-4-isobutoxyphenyl)-1,3-thiazol-2-yl]-2-(4,6-dimethyl-5,7-dioxo-4,5,6,7-tetrahydro-1H-pyrazolo[4,3-d]pyrimidin-1-yl)acetamide] | 99.3 | 100 | < 50
10 | CC(C)CCOc1c(F)cc(-c2csc(NC(=O)Cn3ncc4c3c(=O)n(C)c(=O)n4C)n2)cc1F [Example 76, N-{4-[3,5-Difluoro-4-(3-methylbutoxy)phenyl]-1,3-thiazol-2-yl}-2-(4,6-dimethyl-5,7-dioxo-4,5,6,7-tetrahydro-1H-pyrazolo[4,3-d]pyrimidin-1-yl)acetamide] | 84.3 | 95.6 | > 100

Next, values leading:

Row | inhibition at 1 µM [%] | inhibition at 10 µM [%] | IC50 [nM] | SMILES
11 | 97.7 | 99.6 | < 50 | Cn1nc2c(c1CC(=O)Nc1nc(-c3ccc(C(F)(F)F)c(F)c3)cs1)c(=O)n(C)c(=O)n2C [Example 54, N-[4-(3-Fluoro-4-trifluoromethylphenyl)-1,3-thiazol-2-yl]-2-(2,5,7-trimethyl-4,6-dioxo-4,5,6,7-tetrahydro-2H-pyrazolo[3,4-d]pyrimidin-3-yl)acetamide]
12 | 96.2 | 98.2 | < 50 | Cn1nc2c(c1CC(=O)Nc1nc(-c3ccc(C(F)(F)F)cc3F)cs1)c(=O)n(C)c(=O)n2C [Example 56, N-{4-[2-Fluoro-4-(trifluoromethyl)phenyl]-1,3-thiazol-2-yl}-2-(2,5,7-trimethyl-4,6-dioxo-4,5,6,7-tetrahydro-2H-pyrazolo[3,4-d]pyrimidin-3-yl)acetamide]
13 | 43 | 49.8 |  | Cn1nc2c(c1CC(=O)Nc1nc(-c3cc(C(F)(F)F)ccc3F)cs1)c(=O)n(C)c(=O)n2C [Example 57, N-{4-[2-Fluoro-5-(trifluoromethyl)phenyl]-1,3-thiazol-2-yl}-2-(2,5,7-trimethyl-4,6-dioxo-4,5,6,7-tetrahydro-2H-pyrazolo[3,4-d]pyrimidin-3-yl)acetamide]
14 | 94.6 | 99.2 | < 50 | Cn1nc2c(c1CC(=O)Nc1nc(-c3cc(F)cc(C(F)(F)F)c3)cs1)c(=O)n(C)c(=O)n2C [Example 58, N-{4-[3-Fluoro-5-(trifluoromethyl)phenyl]-1,3-thiazol-2-yl}-2-(2,5,7-trimethyl-4,6-dioxo-4,5,6,7-tetrahydro-2H-pyrazolo[3,4-d]pyrimidin-3-yl)acetamide]
15 | 97.6 | 99.3 | < 50 | Cn1nc2c(c1CC(=O)Nc1nc(-c3ccc(OC(F)(F)F)c(F)c3)cs1)c(=O)n(C)c(=O)n2C [Example 59, N-{4-[3-Fluoro-4-(trifluoromethoxy)phenyl]-1,3-thiazol-2-yl}-2-(2,5,7-trimethyl-4,6-dioxo-4,5,6,7-tetrahydro-2H-pyrazolo[3,4-d]pyrimidin-3-yl)acetamide]
16 | 97.8 | 98.3 | < 50 | Cn1nc2c(c1CC(=O)Nc1nc(-c3cc(F)c(OC(F)F)c(F)c3)cs1)c(=O)n(C)c(=O)n2C [Example 64, N-{4-[4-(Difluoromethoxy)-3,5-difluorophenyl]-1,3-thiazol-2-yl}-2-(2,5,7-trimethyl-4,6-dioxo-4,5,6,7-tetrahydro-2H-pyrazolo[3,4-d]pyrimidin-3-yl)acetamide]
17 | 57.6 | 98.4 |  | Cn1c(=O)c2c(cnn2CC(=O)Nc2nc(-c3ccc(Cl)cc3)cs2)n(C)c1=O [Example 67, N-[4-(4-Chlorophenyl)-1,3-thiazol-2-yl]-2-(4,6-dimethyl-5,7-dioxo-4,5,6,7-tetrahydro-1H-pyrazolo[4,3-d]pyrimidin-1-yl)acetamide]
18 | 91.3 | 99.4 | > 100 | Cn1c(=O)c2c(cnn2CC(=O)Nc2nc(-c3ccc(C(F)(F)F)c(F)c3)cs2)n(C)c1=O [Example 68, 2-(4,6-Dimethyl-5,7-dioxo-4,5,6,7-tetrahydro-1H-pyrazolo[4,3-d]pyrimidin-1-yl)-N-{4-[3-fluoro-4-(trifluoromethyl)phenyl]-1,3-thiazol-2-yl}acetamide]
19 | 97.3 | 99.8 | < 50 | Cn1c(=O)c2c(cnn2CC(=O)Nc2nc(-c3ccc(OCC(C)(C)C)c(F)c3)cs2)n(C)c1=O [Example 69, N-{4-[4-(2,2-Dimethylpropoxy)-3-fluorophenyl]-1,3-thiazol-2-yl}-2-(4,6-dimethyl-5,7-dioxo-4,5,6,7-tetrahydro-1H-pyrazolo[4,3-d]pyrimidin-1-yl)acetamide]
20 | 91.5 | 98.8 | < 50 | Cn1c(=O)c2c(cnn2CC(=O)Nc2nc(-c3ccc(OCC(C)(C)C)c(Cl)c3)cs2)n(C)c1=O [Example 70, N-{4-[3-Chloro-4-(2,2-dimethylpropoxy)phenyl]-1,3-thiazol-2-yl}-2-(4,6-dimethyl-5,7-dioxo-4,5,6,7-tetrahydro-1H-pyrazolo[4,3-d]pyrimidin-1-yl)acetamide]
21 | 78.2 | 99.3 | 50 to 100 | Cn1c(=O)c2c(cnn2CC(=O)Nc2nc(-c3ccc(F)c(C(F)(F)F)c3F)cs2)n(C)c1=O [Example 71, N-{4-[2,4-Difluoro-3-(trifluoromethyl)phenyl]-1,3-thiazol-2-yl}-2-(4,6-dimethyl-5,7-dioxo-4,5,6,7-tetrahydro-1H-pyrazolo[4,3-d]pyrimidin-1-yl)acetamide]
22 | 85.9 | 97.7 | > 100 | Cn1c(=O)c2c(cnn2CC(=O)Nc2nc(-c3cc(F)c(OC(F)F)c(F)c3)cs2)n(C)c1=O [Example 72, N-{4-[4-(Difluoromethoxy)-3,5-difluorophenyl]-1,3-thiazol-2-yl}-2-(4,6-dimethyl-5,7-dioxo-4,5,6,7-tetrahydro-1H-pyrazolo[4,3-d]pyrimidin-1-yl)acetamide]
23 | 99.1 | 99.9 | < 50 | Cn1c(=O)c2c(cnn2CC(=O)Nc2nc(-c3cc(F)c(OCC(F)(F)F)c(F)c3)cs2)n(C)c1=O [Example 73, N-{4-[3,5-Difluoro-4-(2,2,2-trifluoroethoxy)phenyl]-1,3-thiazol-2-yl}-2-(4,6-dimethyl-5,7-dioxo-4,5,6,7-tetrahydro-1H-pyrazolo[4,3-d]pyrimidin-1-yl)acetamide]
